Assay results from patent US4977153A, “3-aminopropyloxyphenyl derivatives, pharmaceutical compositions containing them and method for the therapy of diseases” (Louis; William J., priority 1985, dated 1990).
Like-named read-outs stand apart in the source and are kept apart here.

What was measured:
[1] = molecular target: T1, beta adrenoceptor (guinea pig atrium) (Cavia porcellus, UniProt H0W3H1); experiment: beta adrenoceptor blocking activity in the spontaneously beating guinea pig atrium (inhibition of positive chronotropic isoproterenol effect); type: cell-based
T1 construct: in the spontaneously beating guinea pig atrium; from tissue; host or cells: guinea pig atrium, spontaneously beating
T1 sequence (H0W3H1 1-470): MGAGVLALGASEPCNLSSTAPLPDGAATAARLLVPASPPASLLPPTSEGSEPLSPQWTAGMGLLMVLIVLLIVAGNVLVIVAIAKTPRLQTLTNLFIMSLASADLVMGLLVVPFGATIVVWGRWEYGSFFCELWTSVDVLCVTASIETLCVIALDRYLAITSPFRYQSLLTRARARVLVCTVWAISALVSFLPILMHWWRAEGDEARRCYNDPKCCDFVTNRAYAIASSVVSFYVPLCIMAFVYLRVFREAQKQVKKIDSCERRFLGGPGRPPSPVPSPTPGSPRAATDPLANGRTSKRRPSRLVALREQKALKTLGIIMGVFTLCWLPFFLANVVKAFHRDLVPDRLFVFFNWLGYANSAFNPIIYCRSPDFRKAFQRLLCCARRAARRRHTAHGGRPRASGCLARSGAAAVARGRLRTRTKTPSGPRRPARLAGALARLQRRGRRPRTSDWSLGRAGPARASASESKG

[2] = molecular target: T2, beta adrenoceptor (heart) (Rattus norvegicus, UniProt P18090); experiment: inhibition of isoproterenol-induced tachycardia in the pithed rat; type: in vivo; details: read-out: Pithed Rat Effective Dose (ID50)
T2 construct: from tissue; host or cells: heart in the whole animal (pithed rat, in vivo)
T2 sequence (P18090 whole entry): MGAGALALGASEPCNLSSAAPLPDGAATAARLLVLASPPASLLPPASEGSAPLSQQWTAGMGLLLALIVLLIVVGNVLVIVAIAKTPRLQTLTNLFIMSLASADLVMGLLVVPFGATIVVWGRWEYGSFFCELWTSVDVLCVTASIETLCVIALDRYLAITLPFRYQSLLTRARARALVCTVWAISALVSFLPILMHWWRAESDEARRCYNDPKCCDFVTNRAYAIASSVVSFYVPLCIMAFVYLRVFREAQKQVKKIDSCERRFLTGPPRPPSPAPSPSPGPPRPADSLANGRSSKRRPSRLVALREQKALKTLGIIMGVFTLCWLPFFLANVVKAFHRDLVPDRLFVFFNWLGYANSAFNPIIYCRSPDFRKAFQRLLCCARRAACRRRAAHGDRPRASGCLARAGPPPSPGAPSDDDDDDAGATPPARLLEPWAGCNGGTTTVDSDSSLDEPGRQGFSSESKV

[3] = molecular target: T3, beta adrenoceptor (guinea pig trachea) (Cavia porcellus, UniProt Q8K4Z4); experiment: inhibition of isoproterenol-induced relaxation in guinea pig tracheal preparations (cardioselectivity); type: cell-based; details: guinea pig trachea, in words
T3 construct: tracheal preparations of the guinea pig; from tissue; host or cells: guinea pig tracheal muscle
T3 sequence (Q8K4Z4 whole entry): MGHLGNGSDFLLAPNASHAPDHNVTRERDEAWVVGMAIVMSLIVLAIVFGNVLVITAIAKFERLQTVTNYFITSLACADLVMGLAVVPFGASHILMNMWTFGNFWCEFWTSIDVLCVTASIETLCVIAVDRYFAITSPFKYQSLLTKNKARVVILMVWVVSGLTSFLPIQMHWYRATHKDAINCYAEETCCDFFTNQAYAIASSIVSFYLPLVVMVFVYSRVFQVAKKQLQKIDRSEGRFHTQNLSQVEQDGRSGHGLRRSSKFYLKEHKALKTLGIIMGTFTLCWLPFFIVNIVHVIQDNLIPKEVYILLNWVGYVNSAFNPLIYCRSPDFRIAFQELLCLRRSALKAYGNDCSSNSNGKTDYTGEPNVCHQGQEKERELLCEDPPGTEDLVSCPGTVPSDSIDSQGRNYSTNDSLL

[4] = test system: resting heart rate in the pithed rat; experiment: intrinsic sympathomimetic activity: increase in resting heart rate in the pithed rat; type: in vivo; details: maximum effect of cumulative doses of drug up to 3 mg/kg
[5] = test system: beta adrenoceptor (guinea pig trachea); experiment: inhibition of isoproterenol-induced relaxation in guinea pig tracheal preparations (cardioselectivity); type: cell-based; details: selectivity index, guinea pig trachea vs atrium
[6] = in words; cited from earlier work
[7] = test system: resting heart rate in the pithed rat; details: in words; cited from earlier work
[8] = dose which doubles the concentration of isoproterenol needed to elicit a 50% increase in heart rate, spontaneously beating guinea pig atrium, read-out: Guinea Pig Atrium, Effective Molar Dose (ID50)
[9] = inhibition of isoproterenol-induced tachycardia, pithed rat

ED50 [2, 9]	Compound	Maximum Change in Resting Heart Rate in the Pithed Rat [4]	Kb [1, 8]	also measured
	CC(C)NCC(O)COc1ccc(CC(N)=O)cc1 (stereo not drawn) [Atenolol, reference compound]	0		Kb [1]: 200 nM; ED50 ([2]; rat): 0.03 mg/kg; blocking actions of the isoproterenol response in the trachea [3]: significant blocking actions of the isoproterenol response in the trachea
	CC(C)NCC(O)COc1ccc(CCOCC2CC2)cc1 (stereo not drawn) [Betaxolol, reference compound]	0		
0.002 mg/kg	CCCOCCOc1ccc(OCC(O)CNCCNC(=O)Nc2ccc3[nH]ccc3c2)c(C#N)c1 (stereo not drawn) [Example 1, N-[2-[3-[2-cyano-4-(2-propoxyethoxy)phenoxy]-2-hydroxypropylamino]-ethyl]-N'-(1H-indol-5-yl)-urea]	+101	3 nM	selectivity (cardiac atrial vs tracheal) [5]: 17000
	COCCOc1ccc(OCC(O)CNCCNC(=O)Nc2ccc3[nH]ccc3c2)c(C#N)c1 (stereo not drawn) [Example 6]		13 nM	
	CCCOCCOc1ccc(OCC(O)CNCCNC(=O)Cc2ccc3[nH]ccc3c2)c(C#N)c1 (stereo not drawn) [Example 9]		25 nM	
	CCCOCCOc1ccc(OCC(O)CNCCNC(=O)Cc2ccsc2)c(C#N)c1 (stereo not drawn) [Example 11]	+66	12 nM	
	CCCCOCCOc1ccc(OCC(O)CNCCNC(=O)Nc2ccc3[nH]ccc3c2)c(C#N)c1 (stereo not drawn) [Example 13]	+105		
	N#Cc1cc(OCCOCCc2ccccc2)ccc1OCC(O)CNCCNC(=O)Nc1ccc2[nH]ccc2c1 (stereo not drawn) [Example 14]		10 nM	
0.1 mg/kg	N#Cc1cc(OCCOCc2ccc(F)cc2)ccc1OCC(O)CNCCNC(=O)Nc1ccc2[nH]ccc2c1 (stereo not drawn) [Example 19]	+51	100 nM	
	CCCOCCOc1ccc(OCC(O)CNCCNC(=O)c2ccc3[nH]ccc3c2)c(C#N)c1 (stereo not drawn) [Example 20]		50 nM	
0.03 mg/kg	O=C(NCCNCC(O)COc1ccc(OCCOCC2CC2)cc1)c1ccco1 (stereo not drawn) [Example 23]	+42		
0.003 mg/kg	CCCOCCOc1ccc(OCC(O)CNCCNC(=O)c2ccoc2)cc1 (stereo not drawn) [Example 28]			
0.05 mg/kg	CCCOCCOc1ccc(OCC(O)CN[C@H](C)CNC(=O)c2ccco2)cc1 (stereo partly drawn) [Example 29]		30 nM	
	CCCOCCOc1ccc(OCC(O)CN[C@H](C)CNC(=O)c2ccco2)c(F)c1 (stereo partly drawn) [Example 33]		8 nM	
	CC(C)NCC(O)COc1cccc2[nH]ccc12 (stereo not drawn) [Pindolol, reference compound]	+89		
	CC(C)NCC(O)COc1cccc2ccccc12 (stereo not drawn) [Propranolol]	0		plasma cholesterol effect, known drug [6]: elevated plasma cholesterol; rebound hypersensitivity after cessation, known drug [6]: rebound hypersensitivity occurring after cessation; intrinsic sympathomimetic activity (ISA), known drug [7]: no ISA
